Values quoted from earlier work, collected in patent publication US20110046156A1, “TREATMENT OF HEARING AND BALANCE IMPAIRMENTS WITH REDOX-ACTIVE THERAPEUTICS” (priority 2009, published 2011).

patients displaying some vestibular impairment (2 grams daily for 60 to 120 days): ~75%
SMILES: [H]/N=C(/N)N[C@H]1[C@H](O)[C@@H](O)[C@H](O[C@@H]2O[C@@H](C)[C@](O)(C=O)[C@H]2O[C@@H]2O[C@@H](CO)[C@H](O)[C@@H](O)[C@@H]2NC)[C@@H](N/C(N)=N\[H])[C@@H]1O [streptomycin]
incidence of vestibular impairment (1 gram per day): 25%
